Results reported in patent US8957114B2, “Formulations, salts and polymorphs of transnorsertraline and uses thereof” (Sunovion Pharmaceuticals Inc., priority 2009, dated 2015).
Like-named read-outs stand apart in the source and are kept apart here. Marks after values point to notes of the source that are not given here.

How the values were obtained:
[1] = Stability of isolated degradants of formula (III) fractions; format: physicochemical; conditions: for compound converted: in the presence of NH4OAc, after 24 hours; for stability of freshly isolated fractions: without NH4OAc, a few days at room temperature
Experimental: Degradation products of active were isolated using semi-preparative HPLC (Zorbax SB-SN, 5 um, 9.2×250 mm; 20% ACN/H2O with 0.1% formic acid as mobile phase, 4 mL/min) with the aforementioned open dish degradation sample. Fractions containing these impurities were neutralized with 0.1 M NH4OAc before drying under vacuum to prevent possible decomposition.
Impurities 3 and 4 share the same molecular weight of 323 with almost identical MS fragmentation pattern. After the isolation and drying process, it was noticed that impurities 3 and 4 were converted to impurities 1 and 2 respectively (by HPLC retention time, MS data and ^1H NMR spectrum).
However, in the presence of NH4OAc, almost 50% of the compounds were converted after 24 hours. Furthermore, it was observed that upon drying under vacuum, Degradants III-c and III-d were converted to Degradants III-a and III-b independent of the presence of NH4OAc. Because the molecular formula difference between Degradants III-c and III-a was one oxygen atom as measured by HR-MS, it was concluded that Degradants […] and III-d were a diasteromeric pair of 4-hydroperoxy transnorsertraline. The conversions from impurity 3 and Degradant III-d to Degradants III-a and III-b may be by a decomposition process of hydroperoxides.

[2] = Stability of transnorsertraline HCl blends with mannitol lots containing mannose, amount of degradant II (open dish 30° C./65% RH, HPLC); format: physicochemical
Description: The amount of conjugate degradant leveled off at about two weeks and then slightly declined as stress time increases. Formation of the degradant of formula II also depends on the temperature.
The amount of mannose in mannitol appeared to be the controlling factor, not the type of mannitol used in transnorsertraline HCl formulation (i.e., crystalline vs. spray dried). This was later confirmed from the results obtained using recrystallized mannitol samples spiked with mannose in the stability study of transnorsertraline HCl formulations.
Three recrystallized mannitol lots spiked with mannose were selected for further study based on their % mannose values. Crystalline mannitol and spray dried mannitol were used as controls. The recrystallized spray dried mannitol lot was also used in the study to determine whether the type of mannitol used (crystalline vs. spray dried) was significant. Transnorsertraline HCl blends were made using the selected mannitol lots and placed at 30° C./65% RH under open dish conditions and analyzed initially and then at 2, 4 and 6 weeks using HPLC.

[3] = Solubility of transnorsertraline salts in aqueous buffer systems (SGF, acetate buffer pH 4.5, SIF; HPLC); format: physicochemical
Experimental: Saturated solutions with excess solids were prepared in 20 mL clear glass scintillation vials. Simulated gastric fluid (pH 1.0, ˜0.1N HCl, 0.03M NaCl, no enzymes), simulated intestinal fluid (pH 6.8, 0.05M KH2PO4, ˜0.02N NaOH, no enzymes), and acetate buffer (pH 4.5, 0.02M sodium acetate, 0.03M acetic acid) were prepared in accordance with USP28 (USP28 Test Solutions p2855, Volumetric Solutions p2863). […] Solubility was determined using a HPLC method.

[4] = Thermal gravimetric analysis (TGA) weight loss; format: physicochemical; conditions: heated 25° C. to 325° C. at 10° C./min
Experimental: (§1) The sixteen salts of transnorsertraline of Example 6.14 were analyzed for moisture content and hygroscopicity. Each salt was analyzed by coulometric titration using an EM Scientific Aquastar C3000 titrator to determine water content. Sample size ranged from 18 mg to 134 mg. Each salt was analyzed using a Perkin Elmer TGA 7 Thermal Gravimetric Analyzer (TGA). […] Moisture sorption isotherms for each salt were generated using the VTI SGA-100 Symmetric Vapor Sorption Analyzer. Samples were run as received without pre-analysis drying. Equilibrium criteria were the lesser of 0.01 wt % change in 5 minutes or 180 minutes at each relative humidity (RH) step. Temperature was fixed at 25° C. and the relative humidity steps (25 to 95% to 25%) were in 5% increments. Analysis was repeated for each sample in consecutive analyses (sample was not removed from analyzer). Sample sizes ranged from 18 mg to 35 mg.

[5] = VTI moisture sorption isotherm (hygroscopicity); format: physicochemical; conditions: for VTI Adsorp. (% wt gain 25 to 95% RH) / VTI Desorp. (% wt loss 95 to 25% RH): 25° C.
Experimental: as §1, with “Each” for “The sixteen salts of transnorsertraline of Example 6.14 were analyzed for moisture content and hygroscopicity. Each”, “Sample size ranged from 18 mg to 134 mg.” left out, “Temperature was fixed at 25° C. and the relative humidity steps (25 to 95% to 25%) were in 5% increments.” left out

[6] = Solubility of transnorsertraline salts in de-ionized water (HPLC); conditions: saturated solution in de-ionized water
Experimental: For each salt, saturated solutions with excess solids in deionized water were prepared in 20 mL clear glass scintillation vials with screw caps. All samples were shaken at 300 rpm at ambient conditions for up to nine days until equilibrium was achieved. Solubility was determined using a HPLC method (Table 5).

[7] = Moisture content by coulometric Karl Fischer titration (KF); format: physicochemical
Experimental: as §1, with “Each” for “The sixteen salts of transnorsertraline of Example 6.14 were analyzed for moisture content and hygroscopicity. Each”, “Sample size ranged from 18 mg to 134 mg.” left out, “Temperature was fixed at 25° C. and the relative humidity steps (25 to 95% to 25%) were in 5% increments.” left out

[8] = Polymorphic conversion of anhydrous transnorsertraline hydrochloride to hydrate in aqueous media, in-situ Raman monitoring; format: physicochemical
Experimental: The study of the conversion of anhydrous transnorsertraline hydrochloride to the hydrate form in aqueous media was investigated, using in-situ Raman monitoring.
Raman spectroscopy was performed using a Kaiser Optical Systems Inc. dispersive RamanRXN3 for on-line or in-situ reaction monitoring. The RamanRXN3 system uses an excitation wavelength of 785 nm, with an external cavity-stabilized, diode laser. All spectra were acquired using a ¼″ immersion probe with approximately 100 mW of laser power at the tip of the probe. Different exposure times and numbers of spectrum accumulations were used for the analysis of the two dry samples. An exposure time of 4 seconds with 2 accumulations was used for the monitoring of all form conversions experiments. Wavelength and laser wavelength calibration were performed using an internal neon standard, and diamond Raman shift standard, respectively. The intensity calibration was performed using a Kaiser Raman calibration accessory.
Regions 660-715 cm^−1 and 1430-1490 cm^−1 in particular show little overlapping of the peaks characteristic of each form. Experimental results confirmed that no peaks in the regions […] and 1430-1490 cm^−1 were likely to overlap with peaks of interest to follow the conversion between the two crystalline forms of transnorsertraline hydrochloride.
The conversion of anhydrous transnorsertraline hydrochloride to the monohydrate form was monitored in water. […] Based on the peak intensity ratio I(677 cm^−1)/I(695 cm^−1), an induction time of approximately 1.1 hour was seen before the beginning of the conversion. The end of the conversion was estimated at approximately 2 hours from the beginning of the slurry. […] XRPD analysis of the solids collected at the end of the Raman monitoring of the conversion (after approximately 2 h 10 min) was consistent with the hydrate form, with a small amount of anhydrous form detectable. […] Additionally, the Raman limit of detection of the anhydrous form in the mixture was not estimated.
The conversion of anhydrous transnorsertraline hydrochloride to the hydrate form in water, simulated gastric fluid (SGF) and simulated intestinal fluid (SIF) without enzymes, and 0.1N HCl was monitored at 37° C.
Overall, similar results were obtained in water and simulated gastric fluid, with the start of the form conversion detected at approximately 1.3 hours, with a slightly faster conversion in simulated gastric fluid compared to water. The complete conversion was estimated to occur within 3 to 4 hours in the two media. […] XPRD analysis of the solids collected at the end of each experiments were consistent with the hydrate form, with or without some anhydrous form present. The small amount of anhydrous form may be due to residual solids on the walls of the vessel at the time of the slurry.

[9] = Solid stability of transnorsertraline salts (HPLC impurities); format: physicochemical; conditions: HDPE container
Experimental: Salts of transnorsertraline were tested for solid stability under various conditions. Solid samples of the HCl salt were placed in double-polyehylene lined high density polyethylene (HDPE) containers closed with HDPE lids and stored at 25° C./60% relative humidity or 40° C./75% relative humidity. Samples were analyzed by HPLC.

[10] = saturated solution in 0.05M Acetate Buffer (pH 4.5)
[11] = saturated solution in Simulated Gastric Fluid
[12] = saturated solution in Simulated Intestinal Fluid
[13] = first analysis, listed as L-malate lot 1
[14] = first analysis, listed as L-malate lot 2
[15] = first analysis, listed as L-malate lot 3
[16] = repeated consecutive analysis (second line)
[17] = SIF without enzymes, 37° C., large scale
[18] = SIF without enzymes, 37° C., larger scale
[19] = SIF without enzymes, 37° C., small scale

compound converted [1] [%]	stability of freshly isolated fractions [1]	Solubility in Freebase Equivalents mgA/mL ([3]; pH 4.5)	Solubility in Freebase Equivalents mgA/mL ([3]; pH 6.8) [mgA/mL]	pH [3, 10]	pH [3, 11]	pH [3, 12]	TGA (% wt loss) [4] [% wt loss]	VTI Adsorp. (% wt gain 25 to 95% RH) ([5]; first analysis) [% wt gain]	VTI Desorp. (% wt loss 95 to 25% RH) ([5]; first analysis) [% wt loss]	VTI Adsorp. (% wt gain 25 to 95% RH) [5, 16] [% wt gain]	VTI Desorp. (% wt loss 95 to 25% RH) [5, 16] [% wt loss]	pH [6]	Initial KF (% H2O) [7] [% H2O]	form conversion completed ([8]; 0.1N HCl, 37° C.)	form conversion completed ([8]; SGF without enzymes, 37° C.) [h]	start of form conversion to hydrate ([8]; SGF without enzymes, 37° C.)	end of form conversion [8, 17] [h]	start of form conversion to hydrate [8, 18] [h]	end of form conversion [8, 19]	Molecule	further results
~50	relatively stable	–	–	–	–	–	–	–	–	–	–	–	–	–	–	–	–	–	–	N[C@@H]1CCC(OO)(c2ccc(Cl)c(Cl)c2)c2ccccc21 (single isomer, unassigned) [Degradant-III-c, 4-hydroperoxy transnorsertraline]	–
~50	relatively stable	–	–	–	–	–	–	–	–	–	–	–	–	–	–	–	–	–	–	N[C@@H]1CCC(OO)(c2ccc(Cl)c(Cl)c2)c2ccccc21 (single isomer, unassigned) [III-d, 4-hydroperoxy transnorsertraline]	–
–	–	–	–	–	–	–	–	–	–	–	–	–	–	–	–	–	–	–	–	OCC1OC(NC2CCC(c3ccc(Cl)c(Cl)c3)c3ccccc32)C(O)C(O)C1O (stereo not shown) [degradant of formula II]	behaviour of degradant at higher temperature [2]: underwent decomposition
–	–	1.59^b mgA/mL	0.38	4.42	1.15	6.68	0.07	0.08	0.08	0.06	0.06	4.15	0.05	–	–	–	–	–	–	Transnorsertraline L-Malate	Solubility in Freebase Equivalents mgA/mL ([3]; pH 1): 0.08^b mgA/mL; TGA (% wt loss) ([4]; listed as L-malate lot 1): 0.08 % wt loss; VTI Adsorp. (% wt gain 25 to 95% RH) [5, 13]: 0.08 % wt gain; VTI Desorp. (% wt loss 95 to 25% RH) [5, 13]: 0.08 % wt loss; VTI Adsorp. (% wt gain 25 to 95% RH) [5, 14]: 0.06 % wt gain; VTI Desorp. (% wt loss 95 to 25% RH) [5, 14]: 0.07 % wt loss; VTI Adsorp. (% wt gain 25 to 95% RH) [5, 15]: 5.31 % wt gain; VTI Desorp. (% wt loss 95 to 25% RH) [5, 15]: 5.23 % wt loss; VTI Adsorp. (% wt gain 25 to 95% RH) ([5]; repeated consecutive analysis (second line), listed as L-malate lot 1): 0.06 % wt gain; VTI Adsorp. (% wt gain 25 to 95% RH) ([5]; repeated consecutive analysis (second line), listed as L-malate lot 2): 0.07 % wt gain; moisture adsorbed more than other L-malate lots ([5]; from 25 to 95% relative humidity): > 5%; Initial KF (% H2O) ([7]; listed as L-malate lot 1): 0.05 % H2O; Initial KF (% H2O) ([7]; listed as L-malate lot 2): 0.08 % H2O; Initial KF (% H2O) ([7]; listed as L-malate lot 3): 0.04 % H2O
–	–	2.15 mgA/mL	0.24	4.58	1.28	6.75	0.00	0.01	0.02	0.01	0.02	5.32	0.02	approximately 4 hours	3 to 4	approximately 1.3 hours	~36	~19	approximately 12.5 hours	transnorsertraline hydrochloride [HCl]	induction time of form conversion ([8]; 0.1N HCl, 37° C., larger scale): 2 to 2.3 h; start of form conversion to hydrate [8, 19]: ~10 h; form conversion completed ([8]; water, 37° C.): 3 to 4 h; start of form conversion to hydrate ([8]; water, 37° C.): approximately 1.3 hours; Solubility in Freebase Equivalents mgA/mL [3]: 0.13 mgA/mL; VTI adsorption, weight gain ([5]; second lot, from 25 to 95% relative humidity): 0.01%; VTI desorption, weight loss ([5]; second lot, from 95% to 25% relative humidity): 0.01%
–	–	–	–	–	–	–	–	–	–	–	–	–	–	3 to 4 h	3 to 4	approximately 1.3 hours	~36	~19	approximately 12.5 hours	transnorsertraline hydrochloride anhydrate	start of form conversion to hydrate ([8]; 0.1N HCl, 37° C.): ~2 h; start of form conversion to hydrate [8, 19]: approximately 10 hours; induction time before the beginning of the conversion to monohydrate ([8]; slurry in water, Raman peak ratio I(677)/I(695)): approximately 1.1 hour; end of the conversion to monohydrate ([8]; slurry in water, from the beginning of the slurry): approximately 2 hours; form conversion completed ([8]; water, 37° C.): 3 to 4 h; start of form conversion to hydrate ([8]; water, 37° C.): approximately 1.3 hours; impurities (HPLC) ([9]; 25° C./60% RH and 40° C./75% RH, at least 6 months): less than 0.05%; impurities (HPLC) ([9]; 25° C./60% relative humidity, 2 years): less than 0.1%
